“Also recorded” adds a separate entry of the source. Read-outs that look alike come from different tables or passages of the source. Each block holds one compound with its values, some of them ahead of it. Where no end group is shown, it is not given here.
What was measured:
[1] = system: internal maxillary artery; assay: Local intra arterial injection, vascular resistance in the internal maxillary artery (Rma); format: in vivo; conditions: dog; for effect on Rma, in words / rank order potency on a molar basis (reduction of Rma): local intra arterial injection; for vascular effect after pretreatment with adrenoceptor blockers and atropine: phentolamine, propranolol and atropine pretreatment
Method: Experiments were performed on twelve adult mixed breed dogs of both sexes weighing between 4 and 9 kg. These experiments were approved by the institutional animal care and ethics committee. The dogs were anaesthetised with pentobarbitone sodium (35 mg kg^-1 i.v.). The trachea was cannulated low in the neck and the animals were artifically ventilated. A catheter connected to a […] blood pressure transducer was placed in a femoral artery for systemic blood pressure monitoring. Another catheter was inserted in a femoral vein for administration of compounds and further doses of anaesthetic as required (0.5-1 ml of a 1-in-5 dilution of pentobarbitone). The left cervical vagus nerve was dissected high in the neck, the vagal sheath was removed and then the sympathetic nerve was separated from the vagal trunk. […] The left zygomatic arch was removed and the […] the sphenopalatine ganglion were exposed by a procedure similar to the one described by […] & Wilson (1973). Bipolar platinum electrodes connected to a Grass S 88 stimulator (Grass Instruments, Quincy, USA) were used for stimulation of the proximal portion of the cervical sympathetic nerve and the cut peripheral end of the parasympathetic nerve. The identification of cervical sympathetic nerve was confirmed by observing dilation of the pupil with its electrical stimulation. The left external carotid artery was […] up to the internal maxillary artery. The main arterial branches located beyond to the superficial temporal artery were ligated as described previously by Lacroix et al. (1988), a procedure which leaves the internal maxillary artery flow supplying only the nasal mucosa. The superficial temporal artery was cannulated for selective injection of agents into the main nasal arterial blood supply. The nasal arterial blood flow was recorded with a transonic flow probe (3SB454) placed around the internal maxillary artery and connected to a T206 ultrasonic blood flowmeter (Transonic System Inc., N.Y., U.S.A.). All parameters were continuously recorded on a Grass polygraph model 7C in all experiments. The animals were allowed a one hour intervention-free period following completion of surgery. Group 1 (n+8): […] The administration of saline alone had no measurable effect. An interval of 5 min was allowed between successive injections. Fifteen minutes after the completion of the ACh, VIP, PH1 and NA injections, parasympathetic nerve stimulations (5 V, 5 ms) were performed at continuous frequencies of 10, 20 and 30 Hz, each for 10 sec. Each stimulation was performed 3 min after the blood flow in the internal maxillary artery returned to base line from the preceding stimulation. Sympathetic nerve stimulation (15 V, 5 ms) was then performed continuously at 10 Hz for 3 min. Parasympathetic nerve stimulations were repeated five minutes, thirty minutes and then one hour after sympathetic nerve stimulation. This entire protocol was repeated after pretreatment with the α-adrenoceptor antagonist phentolamine (0.5 mg kg^-1 h^-1), the β-adrenoceptor antagonist propranolol (1 mg kg^-1) and the parasympathetic muscarinic receptor blocker atropine (0.5 mg kg^-1), all delivered by local intra arterial (i.a.) injection. […] Analysis of results: changes of the nasal arterial blood flow were expressed in terms of vascular resistance in the maxillary artery (Rma), obtained by dividing the driving mean arterial blood pressure in the femoral artery by the peak value of the blood flow volume rate in the maxillary artery. Before each experiment a zero flow in the maxillary artery was obtained by clamping the artery upstream to the transonic probe for 30 sec. The duration of the responses were given in second sand calculated from the end of the electrical stimulation until return to former basal values. All data are presented as mean ± standard error of the […]. Statistical differences were evaluated using one way ANOVA test.

[2] = system: endogenous ATP receptor; assay: Calcium response to ATP in Y1 receptor-transfected CHO cells; format: cell-based, Chinese Hamster; conditions: 1 μM ATP
Method: Cells were suspended in loading media (Modified RPMI, 10 mM Hepes, 1% newborn fetal calf serum) and incubated in a spinner flask at 37° C., for 2.5 hours at 1×10^6 cells/ml. Cells were then treated with […] Fura-2 AM for 30 minutes at 37° C., washed twice with loading media and resuspended at 5×10^6 cells/ml. Immediately before use in fluorescence spectroscopy, cells were recovered by centrifugation at 1000 rpm and resuspended at 1×10^6 cells/ml in a modified Krebs buffer (135 mM NaCl, 4.7 mM KCl; 1.2 /nM MgSO4, 1.2 mM KH2 PO4, 5 mM NaHCO3, 1 mM CaCl2, 2.8 mM glucose, and 10 mM Hepes, pH 7.4) containing 1 mM sulphinpyrazone. Fluorescence recordings were made on an Hitachi fluorescence spectrometer (F4010) at 340 nm (excitation) and 505 nm (emission) over 10 minutes with slit widths of 5 nm and a response time of 2 seconds. Intracellular calcium levels were quantitated using equations described (Grynkiewicz et al., 1985).

[3] = system: dog nasal mucosa; assay: Parasympathetic nerve-evoked nasal vasodilatation in anaesthetised dogs; format: in vivo; conditions: for parasympathetic vasodilatation after administration, in words: i.v.
[4] = molecular target: T1, prejunctional (neuropeptide Y Y2) receptor (Rattus norvegicus, UniProt Q9ERC0); assay: Inhibition of cardiac vagal action in anaesthetised rats (prejunctional activity); format: in vivo; conditions: for EC50 / inhibition of cardiac vagal action (prejunctional effect), in words: anaesthetised rats, i.v.; for EC50: log of the dose which evokes 50% of the maximum response, mean ± SEM, five rats
T1 construct: from tissue; host or cells: whole anaesthetised Wistar rat (cardiac vagal nerve endings)
T1 sequence (Q9ERC0 1-381): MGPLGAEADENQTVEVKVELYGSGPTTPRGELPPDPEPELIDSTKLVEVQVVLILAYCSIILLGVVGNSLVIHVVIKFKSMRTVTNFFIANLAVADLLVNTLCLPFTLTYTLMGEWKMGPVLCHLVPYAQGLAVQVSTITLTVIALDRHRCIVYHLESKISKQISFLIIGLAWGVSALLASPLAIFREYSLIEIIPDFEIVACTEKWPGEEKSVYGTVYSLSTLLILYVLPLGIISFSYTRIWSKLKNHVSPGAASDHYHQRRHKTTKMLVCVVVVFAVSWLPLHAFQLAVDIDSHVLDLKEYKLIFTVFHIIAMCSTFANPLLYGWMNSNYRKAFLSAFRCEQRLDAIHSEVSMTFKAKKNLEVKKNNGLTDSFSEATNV
Method: Experiments were carried out on adult rats (Wistar) of both sexes (250-350 g), anaesthetised with sodium pentobarbitone (Nembutal, Boehringer-Ingleheim; 60 mg/kg, i.p.). […] The femoral vein was cannulated for administration of peptides and further doses of anaesthetic. The left femoral artery was cannulated to record arterial pressure. Both vagus nerves were cut. […] The electrocardiogram was measured using needle electrodes and monitored on one channel of an osciloscope. Pulse interval (the period between successive beats of the heart) was recorded beat-by-beat by triggering from ECG. Pulse interval and arterial pressure were recorded on the pen recorder.
Dose-response curves were constructed from group data for all rats. Because of the long time-course of action of the peptides tested, not all peptides were given to each rat.

[5] = molecular target: T2, neuropeptide Y Y2 receptor (Homo sapiens, UniProt P49146); assay: Competition with radiolabelled peptide YY for binding to SMS-KAN cells
T2 construct: endogenous in cells; host or cells: SMS-KAN human neuroblastoma cells (whole cells; gift of Dr Thue Schwartz)
T2 sequence (P49146 1-381): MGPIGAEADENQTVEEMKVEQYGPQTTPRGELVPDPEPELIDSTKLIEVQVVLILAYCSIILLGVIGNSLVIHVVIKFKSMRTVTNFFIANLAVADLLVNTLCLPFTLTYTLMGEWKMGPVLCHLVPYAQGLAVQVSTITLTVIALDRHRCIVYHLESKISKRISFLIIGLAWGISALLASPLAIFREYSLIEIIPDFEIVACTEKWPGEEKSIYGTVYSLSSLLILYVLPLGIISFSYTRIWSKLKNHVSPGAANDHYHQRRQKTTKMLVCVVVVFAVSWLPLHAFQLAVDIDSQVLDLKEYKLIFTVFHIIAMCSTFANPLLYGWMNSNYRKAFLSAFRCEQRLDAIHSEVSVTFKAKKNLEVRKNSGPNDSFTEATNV
Description: (§1) All media and materials for tissue culture were obtained from Cytosystems (Castle Hill, NSW, Australia). Cells were harvested by treatment with 0.2% EDTA in phosphate buffered saline and immediately used in the binding assay described.

[6] = molecular target: T3, postjunctional (neuropeptide Y Y1) receptor (Rattus norvegicus, UniProt P21555); assay: Pressor action (arterial blood pressure) in anaesthetised rats (postjunctional activity); format: in vivo; conditions: i.v.
T3 construct: from tissue; host or cells: whole anaesthetised Wistar rat (vasculature)
T3 sequence (P21555 1-382): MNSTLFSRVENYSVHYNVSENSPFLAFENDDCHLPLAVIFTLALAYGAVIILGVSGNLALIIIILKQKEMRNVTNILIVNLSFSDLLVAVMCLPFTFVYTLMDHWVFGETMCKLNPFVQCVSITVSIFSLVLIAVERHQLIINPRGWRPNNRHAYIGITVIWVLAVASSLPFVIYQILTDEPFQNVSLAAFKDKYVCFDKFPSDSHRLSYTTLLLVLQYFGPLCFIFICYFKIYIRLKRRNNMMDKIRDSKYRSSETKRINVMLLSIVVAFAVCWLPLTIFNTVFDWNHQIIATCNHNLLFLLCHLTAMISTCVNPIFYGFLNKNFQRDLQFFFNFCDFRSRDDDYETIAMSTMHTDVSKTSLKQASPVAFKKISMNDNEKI
Method: Experiments were carried out on adult rats (Wistar) of both sexes (250-350 g), anaesthetised with sodium pentobarbitone (Nembutal, Boehringer-Ingleheim; 60 mg/kg, i.p.). The trachea was cannulated and the animal artifically ventilated. The femoral vein was cannulated for administration of peptides and further doses of anaesthetic. The left femoral artery was cannulated to record arterial pressure. Both vagus nerves were cut. […] The frequency was chosen to increase pulse interval by approximately 100 ms, a submaximal effect on this variable. The electrocardiogram was measured using needle electrodes and monitored on one channel of an osciloscope. Pulse interval (the period between successive beats of the heart) was recorded beat-by-beat by triggering from ECG. Pulse interval and arterial pressure were recorded on the pen recorder. […]
As an indication of prejunctional activity two parameters were measured; the maximum percent inhibition of the increase in pulse interval evoked by stimulation of the vagus nerve following injection of peptide (Δ pulse interval, % inhibition) and the time to half recovery of this effect (T50). For pressor action, an indicator of postjunctional activity, two parameters were also measured; the peak pressor response following injection of peptide (Δ blood pressure) and the duration of the increase in blood pressure (Duration). […]

[7] = molecular target: T4, neuropeptide Y Y1 receptor (Homo sapiens, UniProt P25929); assay: Competition with radiolabelled peptide YY for binding to SK-N-MC cells
T4 construct: host or cells: SK-N-MC human neuroblastoma cells (whole cells)
T4 sequence (P25929 1-384): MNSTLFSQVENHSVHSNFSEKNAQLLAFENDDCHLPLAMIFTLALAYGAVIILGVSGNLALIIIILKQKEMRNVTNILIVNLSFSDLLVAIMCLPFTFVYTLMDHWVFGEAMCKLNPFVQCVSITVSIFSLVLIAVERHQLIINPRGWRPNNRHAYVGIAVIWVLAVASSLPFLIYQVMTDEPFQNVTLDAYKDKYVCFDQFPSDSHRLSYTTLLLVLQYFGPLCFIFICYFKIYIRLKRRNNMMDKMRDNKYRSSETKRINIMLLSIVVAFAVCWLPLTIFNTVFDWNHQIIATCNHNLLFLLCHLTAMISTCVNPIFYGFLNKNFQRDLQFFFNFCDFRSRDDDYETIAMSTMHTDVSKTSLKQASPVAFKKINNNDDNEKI
Description: as §1

[8] = system: internal maxillary artery; assay: Arterial blood pressure and nasal arterial blood flow in anaesthetised dogs after i.v. peptide; format: in vivo; conditions: dog, 8 nmol kg^-1 i.v.
Method: Experiments were performed on twelve adult mixed breed dogs of both sexes weighing between 4 and 9 kg. These experiments were approved by the institutional animal care and ethics committee. The dogs were anaesthetised with pentobarbitone sodium (35 mg kg^-1 i.v.). The trachea was cannulated low in the neck and the animals were artifically ventilated. A catheter connected to a Statham P23AC blood pressure transducer was placed in a femoral artery for systemic blood pressure monitoring. Another catheter was inserted in a femoral vein for administration of compounds and further doses of anaesthetic as required (0.5-1 ml of a 1-in-5 dilution of pentobarbitone). The left cervical vagus nerve was dissected high in the neck, the vagal sheath was removed and then the sympathetic nerve was separated from the vagal trunk. […] Bipolar platinum electrodes connected to a Grass S 88 stimulator (Grass Instruments, Quincy, USA) were used for stimulation of the proximal portion of the cervical sympathetic nerve and the cut peripheral end of the parasympathetic nerve. The identification of cervical sympathetic nerve was confirmed by observing dilation of the pupil with its electrical stimulation. The left external carotid artery was disserted up to the internal maxillary artery. […] The superficial temporal artery was cannulated for selective injection of agents into the main nasal arterial blood supply. The nasal arterial blood flow was recorded with a transonic flow probe (3SB454) placed around the internal maxillary artery and connected to a T206 ultrasonic blood flowmeter (Transonic System Inc., N.Y., U.S.A.). All parameters were continuously recorded on a Grass polygraph model 7C in all experiments. The animals were allowed a one hour intervention-free period following completion of surgery.
Group 1 (n+8): Solutions of ACh (5.5×10^-11 to 5.5×10^-8 mol). VIP (3×10^-11 to 3×10^-9 mol), PH1 (3.3×10^-11 to 1.6×10^-8 mol) and NA (6×10^-11 mol to 6×10^-8 mol) in 1 ml of saline, were infused into the superficial temporal artery over a period of 15 sec. […]

[9] = molecular target: T1, prejunctional (neuropeptide Y Y2) receptor; conditions: Potter et al., 1989; cited from earlier work

Compound: CC(=O)OCC[N+](C)(C)C.[Cl-] [ACh, acetylcholine chloride]
effect on Rma, in words [1]: dose-dependant reductions of the Rma
rank order potency on a molar basis (reduction of Rma) [1]: ACh>VIP>PHI
vascular effect after pretreatment with adrenoceptor blockers and atropine [1]: virtually abolished

Compound: Nc1ncnc2c1ncn2[C@@H]1O[C@H](COP(=O)(O)OP(=O)(O)OP(=O)(O)O)[C@@H](O)[C@H]1O [ATP]
calcium response to ATP after addition of N-acetyl [Leu28, Leu31] neuropeptide Y-(24-36) [2]: 33.8 nM
calcium response to ATP before addition of N-acetyl [Leu28, Leu31] neuropeptide Y-(24-36) [2]: 46.3 nM

Compound: NC[C@H](O)c1ccc(O)c(O)c1 [NA]
effect on Rma, in words [1]: dose-dependant increases in Rma
vascular effect after pretreatment with adrenoceptor blockers and atropine [1]: virtually abolished

Compound: C[N+](C)(C)CC[N+]1(C)Cc2c(Cl)c(Cl)c(Cl)c(Cl)c2C1 [chlorisondamine]
vasodilatation evoked by vidian nerve stimulation after ganglion blocker ([3]; 2 mg kg^-1, i.v.): inhibition of vasodilatation

EC50 ([4]; read-out: EC50 for T50 (time to half recovery of vagal inhibition) (converted)): 2.51 nM
EC50 ([4]; read-out: EC50 for Δ pulse interval (converted)): 3.16 nM
IC50 [5]: 3.9 ± 0.4 nM
Compound: Ac-LRHYLNLLTRQRY-NH2 [N-acetyl [Leu^28, Leu^31] neuropeptide Y-(24-36)]

duration of transient response (T50) ([4]; Table 1 footnote, no EC50 calculated): < 2 min
IC50 [5]: 12.7 ± 1.2 nM
Compound: LRHYLNLLTRQRY-NH2 [[Leu^28, Leu^31] neuropeptide Y-(24-36)]
inhibition of cardiac vagal action (prejunctional effect), in words [4]: significant inhibitory or prejunctional actions but these effects are transient
inhibition of cardiac vagal action (prejunctional effect), in words ([4]; listed as [Leu^27, Leu^31 ] neuropeptide Y-(24-36)): significant inhibitory effects on cardiac vagal action
pressor effect (Δ blood pressure), in words [6]: did not significantly increase blood pressure at any dose tested
binding to Y1 receptor on SK-N-MC cells, in words [7]: neither N-acetyl [Leu^28, Leu^31 ] neuropeptide Y-(24-36) or [Leu^28, Leu^31 ] neuropeptide Y-(24-36) shoed significant binding

Compound: [Leu^31, Pro^34 ] neuropeptide Y [[Leu^31, Pro^34] NPY]
duration of the blood pressure increase [8]: more than 7 min
reduction of blood flow in the internal maxillary artery (nasal mucosa blood flow) [8]: ~20%
increase in arterial blood pressure ([8]; after phentolamine, propranolol and atropine): 23±2.8 mmHg
parasympathetic vasodilatation after administration, in words ([3]; Y1 agonist 8 nmol kg^-1, Y2 agonist 20 nmol kg^-1): no influence on the parasympathetic nerve-evoked vasodilatation; also recorded: no influence on the subsequent parasympathetic vasodilatation
parasympathetic vasodilatation after administration, in words ([3]; Y1 agonist 8 nmol kg^-1, Y2 agonist 20 nmol kg^-1, Pro^31 ] NPY): not modified

Compound: neuropeptide Y-(13-32)
prejunctional activity in vivo, earlier study [9]: inactive in vivo

Compound: peptide histidine isoleucine [PHI]
effect on Rma, in words [1]: dose-dependant reductions of the Rma
rank order potency on a molar basis (reduction of Rma) [1]: ACh>VIP>PHI
vascular effect after pretreatment with adrenoceptor blockers and atropine [1]: remained intact

Compound: vasoactive intestinal polypeptide [VIP]
effect on Rma, in words [1]: dose-dependant reductions of the Rma
rank order potency on a molar basis (reduction of Rma) [1]: ACh>VIP>PHI
vascular effect after pretreatment with adrenoceptor blockers and atropine [1]: remained intact
